What was measured:
Assay type in all cases: cell-based
[1] = system: pancreatic progenitor cells differentiated from human embryonic stem cells; test: Flow cytometry detection of PDX1 in the pancreatic progenitor cell stage (human embryonic stem cells); details: 2 μM inhibitor in pancreatic progenitor cell medium, 5 days, compared with control group without WNT inhibitor
Protocol: a pancreatic progenitor cell medium was prepared, the medium in step 1) was replaced with the pancreatic progenitor cell medium, and the cells were cultured in a carbon dioxide incubator at 37 degrees Celsius for 5 days, during which the medium was replaced every day, wherein the composition of the pancreatic progenitor cell medium was: with an MCDB131 medium as a basic medium, and the following components at the working concentrations were further included: 0.5% of bovine serum albumin (BSA), 1.5 g/L of sodium bicarbonate, 1×glutamine (GlutaMAX), 10 mM glucose, […], 1×insulin-transferrin-selenium-ethanolamine additive (ITS-X), 50 ng/ml of fibroblast growth factor 7 (KGF), 0.5 μM SANT1 (with smo as an inhibitor target), 100 nM retinoic acid (TTNPB), 500 nM phorbol 12,13-dibutyrate (PDBu), 2 μM ALK inhibitor (K02288), and 2 μM WNT signaling pathway inhibitor XAV-939 (not added in a control group), with the concentrations all being final concentrations. […]

[2] = system: pancreatic progenitor cells and pancreatic islet β cells differentiated from human embryonic stem cells; test: Real-time fluorescence quantitative PCR of PDX1, NKX6-1 and INS mRNA (human embryonic stem cells); details: qPCR
Protocol: (§1) a pancreatic progenitor cell medium was prepared, the medium in step 1) was replaced with the pancreatic progenitor cell medium, and the cells were cultured in a carbon dioxide incubator at 37 degrees Celsius for 5 days, during which the medium was replaced every day, wherein the composition of the pancreatic progenitor cell medium was: with an MCDB131 medium as a basic medium, and the following components at the working concentrations were further included: 0.5% of bovine serum albumin (BSA), 1.5 g/L of sodium bicarbonate, 1×glutamine (GlutaMAX), 10 mM glucose, 0.25 M vitamin C, 1×insulin-transferrin-selenium-ethanolamine additive (ITS-X), 50 ng/ml of fibroblast growth factor 7 (KGF), 0.5 μM SANT1 (with smo as an inhibitor target), 100 nM retinoic acid (TTNPB), 500 nM phorbol 12,13-dibutyrate (PDBu), 2 μM ALK inhibitor (K02288), and 2 μM WNT signaling pathway inhibitor XAV-939 (not added in a control group), with the concentrations all being final concentrations.
(§2) b. pancreatic islet β cell medium 2 was prepared, the pancreatic islet β cell medium 1 in above-mentioned step a was replaced with the pancreatic islet β cell medium 2, and the cells were cultured in a carbon dioxide incubator at 37 degrees Celsius for 5 days, during which the medium was replaced every day, wherein the composition of the pancreatic islet β cell medium 1 was: with an MCDB131 medium as a basic medium, and the following components at the working concentrations were further included: 20 mM glucose, 2% of bovine serum albumin (BSA), 1.5 g/L of sodium bicarbonate, 1×glutamine (GlutaMAX), 0.05 mM vitamin C, 1×insulin-transferrin-selenium-ethanolamine additive (ITS-X), 2 μM ALK inhibitor (K02288), 1 μM triiodothyronine (T3), 10 μM YO-01027 (Notch signaling pathway inhibitor), and 10 μM zinc sulfate, with the concentrations all being final concentrations; and the composition of the pancreatic islet β cell medium 2 was: with an MCDB131 medium as a basic medium, and the following components at the working concentrations were further included: 20 mM glucose, 2% of bovine serum albumin (BSA), 1.5 g/L of sodium bicarbonate, 1×glutamine (GlutaMAX), 0.05 mM vitamin C, 1×insulin-transferrin-selenium-ethanolamine additive (ITS-X), 1 μM triiodothyronine (T3), 10 μM Repsox (ALK5 inhibitor), 10 μM vitamin E, 10 μg/ml of heparin sodium, 2 μM R428 (Axl inhibitor), 10 μM zinc sulfate, and 10 mM N-acetyl-L-cysteine (N-cys), with the concentrations all being final concentrations.
Cells cultured in a 24-well plate were collected, and washed twice with 500 μl of DPBS at first, then covered with 200 μl of chymotrypsin-trypsin (Trypsin), and placed at 37° C. for 5 minutes of digestion. Whether the cells float in pieces was observed, and the digestion was terminated using 500 μl of DMEM/F12 medium, then the product was centrifuged at 1000 rpm for 3 minutes, the supernatant was removed, and cell pellets were collected and added to a new RNase-free centrifuge tube. […]

[3] = system: pancreatic progenitor cells and pancreatic islet β cells differentiated from human embryonic stem cells; test: Immunofluorescence detection of PDX1 and PDX1/INS proteins (human embryonic stem cells)
Protocol: as §1, §2
Cells in a culture plate were washed three times with a phosphate buffered saline (PBS), 3 minutes each time; the cells were fixed with 4% paraformaldehyde at room temperature for 20 minutes, and washed three times with PBS, 3 minutes each time; a blocking solution was prepared in advance (by adding Triton at a final concentration of 0.3% to 9 ml of DPBS, adding donkey serum at a final concentration of 10%, and uniformly mixing); the above-prepared blocking solution was used for blocking and perforation at room temperature for 2 hours; the blocking solution was soaked up, a working concentration of primary antibody prepared with the blocking solution was then added, and the product was left to stand at room temperature for 30 minutes and then placed in a refrigerator at 4° C. overnight; the next day, the product was washed three times with PBS, 3 minutes each time; a fluorescent secondary antibody of donkey serum was added and incubation was carried out at room temperature for 2 hours; in the same way, the product was washed three times with PBS, 3 minutes each time; the product was incubated with a working solution of the nuclear dye DAPI at room temperature for 10 minutes, and washed three times with PBS, 3 minutes each time; then a fluorescence microscope was used for observation and data were collected. […]

[4] = 2 μM inhibitor in pancreatic progenitor cell stage, GAPDH reference
[5] = 2 μM inhibitor in pancreatic progenitor cell stage

In the case of `O=C(Nc1cccc2cccnc12)c1ccc(N2C(=O)[C@@H]3[C@H](C2=O)[C@@H]2C=C[C@H]3C2)cc1` [IWR-1], the “PDX1-positive pancreatic progenitor cells (flow cytometry)” value [1] was “significantly increased”, the “transcription level of the insulin gene INS in the mature pancreatic islet β cell stage” value ([2]; 2 μM inhibitor added in pancreatic progenitor cell stage) was “greatly increased” and the “relative expression of mRNA of NKX6-1 in pancreatic progenitor cells” value [2, 4] was “significantly increased”. For the same compound, the “relative expression of mRNA of PDX1 in pancreatic progenitor cells” value [2, 4] was “significantly increased”, the “number of insulin INS-positive and PDX1 co-stained pancreatic islet β cells in the mature pancreatic islet β cell stage” value ([3]; 2 μM inhibitor added in pancreatic progenitor cell stage, immunofluorescence) was “significantly increased” and the “PDX1-positive pancreatic progenitor cells (immunofluorescence)” value [3, 5] was “significantly increased”. The “cell growth (total cell number by DAPI)” value [3, 5] was “did not affect the cell growth”.

— US20220186188A1, “Method for Obtaining Pancreatic Progenitor Cells and Pancreatic Islet Beta Cells By Means of Differentiation of Human Pluripotent Stem Cells” (Asia Regenerative Medicine, Ltd., priority 2019, published 2022)
